Consider 22 compounds from ChEMBL document CHEMBL5331057, “A decade of approved first-in-class small molecule orphan drugs: Achievements, challenges and perspectives” (Eur J Med Chem, 2022).

The subject of series [1] is Mycobacterium tuberculosis. In words: microbe, parasite or virus in culture.
Series [2] deals with Mycobacterium tuberculosis. Description: microbe, parasite or virus in culture. The source holds these as a separate data set.
The target of series [3] is Soluble guanylate cyclase (Homo sapiens) (UniProt Q02153+O75343+P33402+Q02108). Description: Stimulation of recombinant sGC (unknown origin) expressed in CHO cells assessed as formation of cGMP. The series is classed as cell-based. The conditions noted are these: filed as activator.
For a further series, the system named is Aorta. Description: Relaxation of pre-contracted rabbit aorta. The series is classed as functional, tissue-based. The conditions noted are these: Oryctolagus cuniculus.
Series [4] addresses T1, GTPase KRas (Homo sapiens, UniProt P01116). In words: Inhibition of K-Ras (unknown origin).
For the next series, the target named is GTPase HRas (Homo sapiens, UniProt P01112). Description: Inhibition of H-Ras (unknown origin).
Series [5] is described as follows: Inhibition of wild type FTase (unknown origin). Further details: species or system Homo sapiens.
A further series relates to Human betaherpesvirus 5. Description: Antiviral activity against HCMV infected in human NHDF cells assessed as reduction in virus plaque formation. The series is classed as functional, organism-based. The conditions noted are these: Human betaherpesvirus 5, NHDF.
For series [6], the target named is Cystic fibrosis transmembrane conductance regulator (Homo sapiens, UniProt P13569, F508DEL).
The target in series [7] is Hepatocyte growth factor receptor (Homo sapiens, UniProt P08581). Description: Inhibition of c-Met (unknown origin).
The target of another series is Melanocortin receptor 4 (Rattus norvegicus, UniProt P70596). Description: Inhibition of rat MC4R.
The target in series [8] is Isocitrate dehydrogenase [NADP], mitochondrial (Homo sapiens, UniProt P48735). In words: Inhibition of IDH2 (unknown origin).
Another series concerns HCT-116. In words: Antiproliferative activity against human HCT-116 cells assessed as inhibition of cell growth. The class given is functional, cell-based.
A further series has as its system K562. Description: Antiproliferative activity against human K562 cells assessed as inhibition of cell growth. The series is classed as functional, cell-based.
In a further series the target is Methionine synthase (Homo sapiens, UniProt Q99707). Description: Inhibition of MTR (unknown origin).
Another series concerns HepG2. In words: cells. The conditions noted are these: Homo sapiens, HepG2, read-out: ED50.
In another series the test system is Brain. Description: Neuroprotective activity in Wistar rat brain homogenate assessed as inhibition of lipid peroxidation incubated for 10 mins by fluorometric analysis. The series is classed as functional, tissue-based.
Series [9] has as its target T2, Exportin-1 (Homo sapiens, UniProt O14980). In words: Inhibition of XPO1 in human HPBALL cells. The series is classed as cell-based.
Series [10] has as its target T2, Exportin-1. In words: Inhibition of XPO1 in human MOLT-16 cells. The series is classed as cell-based.
A further series can be described thus: cells. The conditions noted are these: Homo sapiens, HAC15, 72 h.
The target in series [11] is T1, GTPase KRas. Description: Inhibition of K-Ras in human NCI-H460 cells. The class given is cell-based.
A further series concerns SW-620. Description: cells. The conditions noted are these: Homo sapiens.
In a further series the test system is Malme-3M. In words: Antiproliferative activity against human Malme-3M cells assessed as inhibition of cell growth. The series is classed as functional, cell-based.
In another series the test system is RBL-2H3. In words: Antiproliferative activity against rat RBL-2H3 cells assessed as […]. The series is classed as functional, cell-based.
Series [12] in a line: Cytotoxicity against human HBE cells assessed as inhibition of cell growth. The class given is toxicity, cell-based.
In the next series the test system is RS4-11. Description: Antiproliferative activity against human RS4-11 cells assessed as […]. The series is classed as functional, cell-based.

SMILES strings stand for the structures. In brackets after ≈: the same amount, converted by molar mass.

T2 sequence (O14980 whole entry): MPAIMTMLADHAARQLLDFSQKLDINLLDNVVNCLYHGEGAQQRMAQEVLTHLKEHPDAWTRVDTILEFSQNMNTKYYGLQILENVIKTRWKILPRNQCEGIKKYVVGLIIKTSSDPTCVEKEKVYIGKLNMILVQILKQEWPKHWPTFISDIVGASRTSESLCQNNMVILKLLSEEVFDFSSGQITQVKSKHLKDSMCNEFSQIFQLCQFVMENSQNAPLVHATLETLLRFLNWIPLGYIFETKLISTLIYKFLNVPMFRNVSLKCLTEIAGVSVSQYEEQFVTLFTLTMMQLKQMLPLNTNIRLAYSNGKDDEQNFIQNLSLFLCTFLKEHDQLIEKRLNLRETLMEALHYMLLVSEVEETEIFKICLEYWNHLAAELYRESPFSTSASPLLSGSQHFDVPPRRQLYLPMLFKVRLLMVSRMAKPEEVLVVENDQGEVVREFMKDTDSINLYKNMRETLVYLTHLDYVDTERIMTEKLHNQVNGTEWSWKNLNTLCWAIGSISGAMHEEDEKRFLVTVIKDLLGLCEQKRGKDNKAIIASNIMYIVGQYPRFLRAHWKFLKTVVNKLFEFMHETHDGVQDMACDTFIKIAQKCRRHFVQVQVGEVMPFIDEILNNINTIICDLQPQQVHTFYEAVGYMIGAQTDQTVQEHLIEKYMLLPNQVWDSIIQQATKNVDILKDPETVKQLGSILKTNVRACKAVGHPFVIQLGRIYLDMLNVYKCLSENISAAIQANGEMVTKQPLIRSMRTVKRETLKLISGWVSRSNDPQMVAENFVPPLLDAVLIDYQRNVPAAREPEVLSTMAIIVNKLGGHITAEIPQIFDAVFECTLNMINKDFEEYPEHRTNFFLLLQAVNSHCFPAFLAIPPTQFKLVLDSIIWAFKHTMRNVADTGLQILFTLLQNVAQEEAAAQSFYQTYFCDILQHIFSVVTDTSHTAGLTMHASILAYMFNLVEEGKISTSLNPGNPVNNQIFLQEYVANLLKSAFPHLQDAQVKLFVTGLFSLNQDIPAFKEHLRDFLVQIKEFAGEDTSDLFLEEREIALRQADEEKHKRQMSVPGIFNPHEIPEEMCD
Methionine synthase, sequence (Q99707 whole entry): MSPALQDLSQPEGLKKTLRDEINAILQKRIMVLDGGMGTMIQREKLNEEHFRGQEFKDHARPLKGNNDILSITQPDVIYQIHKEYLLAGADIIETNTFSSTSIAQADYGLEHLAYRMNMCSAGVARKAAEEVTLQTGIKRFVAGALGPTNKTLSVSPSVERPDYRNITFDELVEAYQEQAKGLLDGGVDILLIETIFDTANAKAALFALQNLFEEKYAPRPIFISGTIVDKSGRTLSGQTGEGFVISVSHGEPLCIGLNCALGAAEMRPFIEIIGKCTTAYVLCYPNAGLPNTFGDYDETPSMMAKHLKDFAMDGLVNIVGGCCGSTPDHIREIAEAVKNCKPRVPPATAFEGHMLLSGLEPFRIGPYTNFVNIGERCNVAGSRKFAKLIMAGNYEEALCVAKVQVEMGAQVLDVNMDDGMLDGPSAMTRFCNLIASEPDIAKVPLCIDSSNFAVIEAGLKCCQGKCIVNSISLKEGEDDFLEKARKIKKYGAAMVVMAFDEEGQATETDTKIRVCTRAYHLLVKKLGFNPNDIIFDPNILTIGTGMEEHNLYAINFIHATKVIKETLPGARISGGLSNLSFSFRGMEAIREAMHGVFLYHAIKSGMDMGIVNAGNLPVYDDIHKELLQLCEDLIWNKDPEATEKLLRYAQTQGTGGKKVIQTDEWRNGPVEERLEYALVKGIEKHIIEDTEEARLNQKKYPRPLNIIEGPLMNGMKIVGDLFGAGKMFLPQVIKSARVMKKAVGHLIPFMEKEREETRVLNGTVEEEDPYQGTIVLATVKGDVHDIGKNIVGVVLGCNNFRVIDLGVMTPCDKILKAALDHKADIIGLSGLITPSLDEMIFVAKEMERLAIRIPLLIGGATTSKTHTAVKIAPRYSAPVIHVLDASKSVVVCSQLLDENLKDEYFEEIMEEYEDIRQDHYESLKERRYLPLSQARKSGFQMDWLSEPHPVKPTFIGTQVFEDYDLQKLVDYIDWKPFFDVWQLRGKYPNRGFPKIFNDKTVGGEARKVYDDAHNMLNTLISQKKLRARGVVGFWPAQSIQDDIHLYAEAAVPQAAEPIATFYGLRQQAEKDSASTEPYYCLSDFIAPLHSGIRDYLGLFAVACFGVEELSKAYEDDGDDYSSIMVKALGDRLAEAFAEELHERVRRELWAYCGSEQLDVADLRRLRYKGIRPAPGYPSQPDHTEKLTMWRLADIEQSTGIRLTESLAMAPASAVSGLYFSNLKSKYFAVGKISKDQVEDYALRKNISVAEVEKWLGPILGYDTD
T1 sequence (P01116 whole entry): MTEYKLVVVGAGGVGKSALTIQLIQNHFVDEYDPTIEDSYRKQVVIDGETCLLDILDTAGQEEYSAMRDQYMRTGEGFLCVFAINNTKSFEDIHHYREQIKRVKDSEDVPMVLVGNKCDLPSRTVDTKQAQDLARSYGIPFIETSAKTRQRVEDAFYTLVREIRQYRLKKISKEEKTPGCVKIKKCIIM
Cystic fibrosis transmembrane conductance regulator, sequence (P13569 as listed by the source): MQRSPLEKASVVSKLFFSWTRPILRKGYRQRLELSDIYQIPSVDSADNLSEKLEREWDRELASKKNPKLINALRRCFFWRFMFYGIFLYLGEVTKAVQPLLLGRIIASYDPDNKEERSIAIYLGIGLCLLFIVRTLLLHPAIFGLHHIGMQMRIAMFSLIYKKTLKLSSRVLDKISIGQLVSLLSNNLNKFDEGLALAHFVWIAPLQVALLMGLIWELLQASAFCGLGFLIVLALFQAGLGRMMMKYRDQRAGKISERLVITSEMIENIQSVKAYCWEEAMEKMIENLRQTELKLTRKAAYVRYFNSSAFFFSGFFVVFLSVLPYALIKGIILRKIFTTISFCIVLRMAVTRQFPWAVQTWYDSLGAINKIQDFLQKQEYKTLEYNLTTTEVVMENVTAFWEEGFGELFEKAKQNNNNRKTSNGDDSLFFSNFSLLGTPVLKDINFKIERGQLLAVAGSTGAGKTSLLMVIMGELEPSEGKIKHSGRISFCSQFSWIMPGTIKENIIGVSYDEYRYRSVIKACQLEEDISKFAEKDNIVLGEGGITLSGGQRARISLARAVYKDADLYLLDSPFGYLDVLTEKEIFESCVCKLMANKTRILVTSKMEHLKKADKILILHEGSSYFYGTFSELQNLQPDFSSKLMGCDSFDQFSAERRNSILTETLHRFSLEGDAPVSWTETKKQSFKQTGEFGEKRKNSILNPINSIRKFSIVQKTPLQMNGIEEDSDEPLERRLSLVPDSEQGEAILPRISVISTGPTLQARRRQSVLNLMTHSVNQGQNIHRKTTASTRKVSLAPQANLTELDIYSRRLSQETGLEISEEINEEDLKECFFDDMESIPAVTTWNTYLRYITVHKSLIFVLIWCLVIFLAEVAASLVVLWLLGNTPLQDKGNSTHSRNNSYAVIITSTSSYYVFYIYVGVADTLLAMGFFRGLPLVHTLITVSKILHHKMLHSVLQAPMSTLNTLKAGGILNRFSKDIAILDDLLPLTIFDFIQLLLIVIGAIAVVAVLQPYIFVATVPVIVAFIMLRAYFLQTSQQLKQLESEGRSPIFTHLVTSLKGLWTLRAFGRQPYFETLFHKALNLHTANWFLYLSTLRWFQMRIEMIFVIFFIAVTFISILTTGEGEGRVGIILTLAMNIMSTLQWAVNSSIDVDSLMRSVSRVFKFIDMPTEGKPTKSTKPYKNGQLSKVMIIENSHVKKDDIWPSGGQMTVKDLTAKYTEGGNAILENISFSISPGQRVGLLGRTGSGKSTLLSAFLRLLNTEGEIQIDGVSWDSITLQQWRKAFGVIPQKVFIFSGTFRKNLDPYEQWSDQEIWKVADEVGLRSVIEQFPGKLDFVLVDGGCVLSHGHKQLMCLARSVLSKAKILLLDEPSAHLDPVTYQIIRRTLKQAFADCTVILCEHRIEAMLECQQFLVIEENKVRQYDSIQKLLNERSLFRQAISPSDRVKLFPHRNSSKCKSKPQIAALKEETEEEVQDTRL
Melanocortin receptor 4, sequence (P70596 whole entry): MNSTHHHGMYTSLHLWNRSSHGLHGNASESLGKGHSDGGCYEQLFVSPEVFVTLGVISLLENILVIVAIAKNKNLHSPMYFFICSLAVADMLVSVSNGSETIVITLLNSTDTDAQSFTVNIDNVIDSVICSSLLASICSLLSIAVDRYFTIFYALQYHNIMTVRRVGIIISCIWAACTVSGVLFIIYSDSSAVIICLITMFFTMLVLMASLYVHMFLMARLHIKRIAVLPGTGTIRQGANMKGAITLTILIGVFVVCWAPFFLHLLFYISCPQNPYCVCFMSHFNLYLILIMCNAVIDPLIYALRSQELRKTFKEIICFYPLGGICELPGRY
GTPase HRas, sequence (P01112 whole entry): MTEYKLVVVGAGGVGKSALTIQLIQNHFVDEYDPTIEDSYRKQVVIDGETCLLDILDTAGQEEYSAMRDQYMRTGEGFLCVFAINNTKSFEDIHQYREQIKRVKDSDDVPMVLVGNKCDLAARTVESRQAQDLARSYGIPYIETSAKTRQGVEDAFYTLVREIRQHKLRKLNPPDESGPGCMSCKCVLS
Isocitrate dehydrogenase [NADP], mitochondrial, sequence (P48735 whole entry): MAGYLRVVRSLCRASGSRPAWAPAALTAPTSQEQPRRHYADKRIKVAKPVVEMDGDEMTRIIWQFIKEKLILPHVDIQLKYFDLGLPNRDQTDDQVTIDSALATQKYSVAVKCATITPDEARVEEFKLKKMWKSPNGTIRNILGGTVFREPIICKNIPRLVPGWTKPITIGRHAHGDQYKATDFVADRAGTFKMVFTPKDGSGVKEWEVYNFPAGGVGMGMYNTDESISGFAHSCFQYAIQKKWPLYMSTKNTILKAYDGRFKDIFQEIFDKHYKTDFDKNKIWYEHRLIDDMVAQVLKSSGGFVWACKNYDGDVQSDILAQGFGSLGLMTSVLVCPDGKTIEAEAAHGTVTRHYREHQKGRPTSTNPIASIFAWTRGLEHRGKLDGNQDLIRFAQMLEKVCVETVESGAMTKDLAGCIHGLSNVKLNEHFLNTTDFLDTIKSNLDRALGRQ

With `COc1nc2ccc(Br)cc2cc1[C@@H](c1ccccc1)[C@@](O)(CCN(C)C)c1cccc2ccccc12` [BEDAQUILINE], the MIC in [1] and in series [2] was 0.03 µg/mL (≈ 0.054 µM) each time. One may read the IC50 as the point on the concentration scale where inhibition reaches its midpoint. For `COC(=O)N(C)c1c(N)nc(-c2nn(Cc3ccccc3F)c3ncccc23)nc1N` [RIOCIGUAT], the MEC in series [3] was 0.03 µM. This compound also registered an IC50 in the series with Aorta of 120 nM. As for `O=C(Cc1ccncc1)N1CCN([C@H]2c3ccc(Cl)cc3CCc3cccnc32)CC1`, the IC50 is 5.2 nM against GTPase KRas [4], 1.9 nM on GTPase HRas and 490 nM in series [5].

`NNC(=O)c1ccncc1` [ISONIAZID]: the MIC in [1] and in series [2] was 0.12 µg/mL (≈ 0.875 µM) throughout. As a reminder, the EC90 is the point of the concentration-response curve where the effect stands at 90%. As for `COc1cccc(N2CCN(C3=Nc4c(F)cccc4[C@H](CC(=O)O)N3c3cc(C(F)(F)F)ccc3OC)CC2)c1` [LETERMOVIR], in the series on Human betaherpesvirus 5, the EC50 turned out to be 4.5 nM and the EC90 was found to be 6.1 nM.

In turn, `O=C(c1c[nH]c2ccccc2c1=O)N(Cc1ccccc1)Cc1ccccc1` gave an EC50 in [6] of 2.1 nM. As to `Cc1[nH]c(/C=C2\C(=O)Nc3ccc(S(=O)(=O)C(C)c4c(Cl)cccc4Cl)cc32)c(C)c1C(=O)N1CCC[C@@H]1CN1CCCC1` (some centres undefined), in series [7], it took 9 nM to reach half-maximal inhibition (IC50). Turning to `CC(=O)N[C@@H](CCCNC(=N)N)C(=O)N[C@H]1CSSC[C@@H](C(N)=O)NC(=O)[C@H](Cc2c[nH]c3ccccc23)NC(=O)[C@H](CCCNC(=N)N)NC(=O)[C@@H](Cc2ccccc2)NC(=O)[C@H](Cc2c[nH]cn2)NC(=O)[C@@H](C)NC1=O` [SETMELANOTIDE], the EC50 on Melanocortin receptor 4 is 0.28 nM. Take `CC(C)(C)Nc1nc(Nc2ccccc2)nc(-c2ccccc2)n1`: the IC50 in series [8] came to 100 nM; in the series on HCT-116 it was 530 nM. `COC(=O)C[C@](O)(CCCC(C)(C)O)C(=O)O[C@@H]1C(OC)=C[C@]23CCCN2CCc2cc4c(cc2[C@H]13)OCO4` [OMACETAXINE MEPESUCCINATE]: the half-maximal inhibitory concentration (IC50) in the series on K562 came to 21 nM. In the case of `O=C(NC1CCN(CCCCC2(C(=O)NCC(F)(F)F)c3ccccc3-c3ccccc32)CC1)c1ccccc1-c1ccc(C(F)(F)F)cc1` [LOMITAPIDE], the half-inhibitory concentration (IC50) at Methionine synthase worked out at 0.5 nM. The EC50 in the series on HepG2 was found to be 0.8 nM. For the compound `CC1=NN(c2ccccc2)C(=O)C1` [EDARAVONE], the IC50 in the series with Brain was 18200 nM.

On to `COc1cc(-c2ncn(/C=C\C(=O)OC(C)C)n2)cc(C(F)(F)F)c1`, for which the IC50 against Exportin-1 [9] was found to be 16 nM; at Exportin-1 [10], 112 nM. Compound `O=C1c2ccccc2CN1C1CCN(CCC(c2ccccc2)c2ccccc2)CC1` showed an IC50 on Methionine synthase of 2.2 nM. Moreover, in the series with HepG2, the EC50 turned out to be 2.2 nM. Turning to `N#Cc1ccc([C@H]2CCc3cncn32)c(F)c1` [OSILODROSTAT], in “cells”, half-maximal inhibition (IC50) required 35 nM. Regarding `NC(=O)N1CCC(CC(=O)N2CCC([C@H]3c4ncc(Br)cc4CCc4cc(Cl)cc(Br)c43)CC2)CC1` [LONAFARNIB], at GTPase KRas [11], the IC50 came to 40 nM. In the series with SW-620, `O=C(c1cc(Cc2n[nH]c(=O)c3ccccc23)ccc1F)N1CCN(C(=O)C2CC2)CC1` [OLAPARIB] yielded a half-inhibitory concentration (IC50) of 6 nM. For the compound `Cn1cnc2c(F)c(Nc3ccc(Br)cc3Cl)c(C(=O)NOCCO)cc21` [SELUMETINIB], the IC50 in the series on Malme-3M came out at 59 nM.

As to `CCOC(=O)[C@@H](N)Cc1ccc(-c2cc(O[C@H](c3ccc(Cl)cc3-n3ccc(C)n3)C(F)(F)F)nc(N)n2)cc1` [TELOTRISTAT ETIPRATE], the half-maximal inhibitory concentration (IC50) in the series with RBL-2H3 is 400 nM. With `CC(C)(C)c1cc(C(C)(C)C)c(NC(=O)c2c[nH]c3ccccc3c2=O)cc1O` [IVACAFTOR], the EC50 in series [12] worked out at 236 nM; in [6] it was 25 nM. For the compound `CO[C@H]1/C=C/O[C@@]2(C)Oc3c(C)c(O)c4c(O)c(c(/C=N/N5CCN(C)CC5)c(O)c4c3C2=O)NC(=O)/C(C)=C\C=C\[C@H](C)[C@H](O)[C@@H](C)[C@@H](O)[C@@H](C)[C@H](OC(C)=O)[C@@H]1C` [RIFAMPIN], the MIC in series [1] and in [2] was 0.5 µg/mL (≈ 0.608 µM) in each case.

Take `CC1(C)CCC(c2ccc(Cl)cc2)=C(CN2CCN(c3ccc(C(=O)NS(=O)(=O)c4ccc(NCC5CCOCC5)c([N+](=O)[O-])c4)c(Oc4cnc5[nH]ccc5c4)c3)CC2)C1`: the EC50 with RS4-11 stood at 8 nM.
